According to PMC4747383, “Design of a peptidic inhibitor that targets the dimer interface of a prototypic galectin” (Oncotarget, 2015):
No end group written: not given here.

Experiments:
PBMCs = test: hGal-7-induced apoptosis of PBMCs, PARP-1 cleavage (Western blot); format: cell-based, human; settings: increasing hGal-7 pre-incubated with peptide 200 μM, 4 h at 37°C, serum-free, two independent experiments
Experimental: The Jurkat cell line was maintained in RPMI 1640 medium. The culture medium was supplemented with 10% [v/v] fetal bovine serum, 2 mmol/L L-glutamine, 10 mM HEPES buffer, and 1 mM sodium pyruvate. All cell culture products were purchased from Life Technologies (Burlington, ON, Canada). Isolation of peripheral mononuclear cell (PBMCs) was performed as previously described.
For the apoptosis tests, whole-cell extracts were homogenized and resuspended in RIPA buffer (Thermo Fisher Scientific, Rockford, IL, USA) containing protease inhibitors (Roche, Laval, QC, Canada). Equal amounts of whole-cell extracts (25 μg) were separated on SDS-PAGE and transferred onto nitrocellulose membranes (Bio-Rad Laboratories). The membranes were first blocked with 5% milk [w/v] in TBS/0.5% Tween 20 [v/v] for 1 h at room temperature and subsequently blotted overnight in a solution of TBS containing 3% BSA [w/v] and 0.5% Tween 20 [v/v]. The following antibodies were used: a rabbit anti-poly-(ADP-ribose) polymerase (PARP)-1 (p25) polyclonal antibody (1:5000; Epitomics, Burlingame, CA, USA) and a mouse anti-β-actin (1:10000; Sigma-Aldrich, St. Louis, MO, USA). […]
concentrations of recombinant human gaI-7 were pre-incubated with the hGaI-7129–135 (200 μM) prior to its addition to A. Jurkat T cells or B. PBMCs. Apoptosis wa, measured after 4 h at 37°C in serum·free conditions. […]

[1] = design: method as in PMID 22922050; settings: ref [51]; cited from earlier work

H-LDSVRIP-NH2 [hGal-7(129–135), peptide corresponding to hGal-7 segment between residues 129–135]
inhibition of hGal-7-induced apoptosis in PBMCs (PARP-1 cleavage) (PBMCs): also observed using human peripheral blood monocytes | inhibition of hGal-7-induced apoptosis in PBMCs (PARP-1 cleavage) (PBMCs; listed as hGaI-7129–135): decreases gaI-7-induced apoptosis

PACAP(28–38): an inactive fragment of the human Pituitary Adenylate Cyclase-Activating Polypeptide (PACAP) (GKRYKQRVKNK-NH2; ends and bridges not checked; UniProt P18509 159-169, looked up, fragment)
binding of cell surface phospholipids [1]: binds cell surface phospholipids
